Consider 22 compounds from US11053409B2, “Compositions for containers and other articles and methods of using same” (priority 2011, dated 2021).

The first data set concerns MCF-7, clone WS8, cells. In words: MCF-7 cell proliferation assay of estrogenic activity. The class given is cell-based, human. The settings on record: logarithmic (base 10) Relative Proliferative Effect relative to 17-beta estradiol; values stated as expected or measured. From the text: The MCF-7 assay uses MCF-7, clone WS8, cells to measure whether and to what extent a substance induces cell proliferation via estrogen receptor (ER)-mediated pathways. The method is described in “Test Method Nomination: MCF-7 Cell Proliferation Assay of Estrogenic Activity” submitted for validation by CertiChem, Inc. to the National Toxicology Program Interagency Center for the Evaluation of Alternative Toxicological Methods (NICEATM) on Jan. 19, 2006 (available online at http://iccvam.niehs.nih.gov/methods/endocrine/endodocs/SubmDoc.pdf).
A brief summary of the method of the aforementioned MCF-7 assay is provided below. MCF-7, clone WS8, cells are maintained at 37° C. in RMPI (or Roswell Park Memorial Institute medium) containing Phenol Red (e.g., GIBCO Catalog Number 11875119) and supplemented with the indicated additives for routine culture. An aliquot of cells maintained at 37° C. are grown for 2 days in phenol-free media containing 5% charcoal stripped fetal bovine serum in a 25 cm^2 tissue culture flask. Using a robotic dispenser such as an epMotion 5070 unit, MCF-7 cells are then seeded at 400 cells per well in 0.2 ml of hormone-free culture medium in Corning 96-well plates. The cells are adapted for 3 days in the hormone-free culture medium prior to adding the chemical to be assayed for estrogenic activity. The media containing the test chemical is replaced daily for 6 days. At the end of the 7-day exposure to the test chemical, the media is removed, the wells are washed once with 0.2 ml of HBSS (Hanks' Balanced Salt Solution), and then assayed to quantify amounts of DNA per well using a micro-plate modification of the Burton diphenylamine (DPA) assay, which is used to calculate the level of cell proliferation.
RPE is the ratio between the EC50 of the test chemical and the EC50 of the control substance 17-beta estradiol times 100, where EC50 is “effective concentration 50%” or half-maximum stimulation concentration for cell proliferation measured as total DNA in the MCF-7 assay.
As to `CC(c1ccc(O)cc1)(c1ccc(O)cc1)c1ccc(O)cc1` [Structure 3], the “Log RPE” value is given as −3.

Take `CC(C)(c1ccc(O)cc1)c1ccc(C(C)(C)c2ccc(O)cc2)cc1` [Structure 10]: the “Log RPE” value is “less than −4”. As for `Oc1ccc(Cc2ccc(O)cc2)cc1` [Bisphenol F, reference compound], the “Log RPE” value is reported as −2. On the same count and under the same terms, then `Cc1cc(Cc2cc(C)cc(C3(C)CCCCC3)c2O)c(O)c(C2(C)CCCCC2)c1` [Structure 13], with “less than −4”; and `CCc1cc(Cc2cc(CC)cc(C(C)(C)C)c2O)c(O)c(C(C)(C)C)c1` [Structure 15], with “less than −4”; and `CC(c1ccccc1)(c1ccc(O)cc1)c1ccc(O)cc1` [Structure 4], with −3.

Consider `CCCC(c1cc(C(C)(C)C)c(O)cc1C)c1cc(C(C)(C)C)c(O)cc1C` [Structure 7], for which the “Log RPE” value is recorded as “less than −4”. The same measure, in the same setting: then `Cc1cc(C(C)(C)c2cc(C)c(O)c(C)c2)cc(C)c1O` [Structure 1], with −2; and `C[C@]12CC[C@@H]3c4ccc(O)cc4CC[C@H]3[C@@H]1CC[C@@H]2O` [17β-estradiol, reference compound], with 2.00; and `Cc1cc(Cc2cc(C)cc(C(C)(C)C)c2O)c(O)c(C(C)(C)C)c1` [Structure 9], with “less than −4”.

`CC/C(=C(/CC)c1ccc(O)cc1)c1ccc(O)cc1` [diethylstilbestrol, reference compound]: the “Log RPE” value is given as “about 2”.

Consider `Oc1ccccc1Cc1ccccc1O` [Structure 11], for which the “Log RPE” value is listed as “less than −4”.

Regarding `O=c1c(-c2ccc(O)cc2)coc2cc(O)cc(O)c12` [Genistein, reference compound], the “Log RPE” value is −2.

As for `CC(C)(C)c1cc(Cc2cc(C(C)(C)C)c(O)c(C(C)(C)C)c2)cc(C(C)(C)C)c1O` [Structure 8], the “Log RPE” value is “less than −4”. Same read-out and setting: then `Cc1cc(CCc2cc(C)c(O)c(C)c2)cc(C)c1O` [Structure 2], with −3; and `O=S(=O)(c1ccc(O)cc1)c1ccc(O)cc1` [Bisphenol S, reference compound], with −2; and `Cc1cc(Cc2cc(C)c(O)c(C)c2)cc(C)c1O` [Structure 6], with “less than −4”. Same read-out and setting: then `C/C=C(/C(=C/C)c1ccc(O)cc1)c1ccc(O)cc1` [dienestrol, reference compound], with “about 2”.

System in a further data set: not listed separately
In words: suitable genotoxicity assays (e.g., Ames II assay).
Conditions: not given
In kind it is cell-based. The protocol:
The mixture was stirred for 30 minutes at −10° C. Epichlorohydrin (1.9 liters, 24.2 moles) was added via dropping funnel at −10 to −5° C. The solution was allowed to warm up to room temperature and then was heated for 16 hours at a temperature of from 75 to 82° C. After cooling down to ambient temperature, the mixture was added to cold tap water (12 liters). Ethyl acetate (5 liters) was added to the mixture, which was stirred for 10 minutes and separated. The aqueous layer was extracted again with additional ethyl acetate (3 liters). The combined ethyl acetate extracts were washed twice with brine (2×6 liters), dried over anhydrous sodium sulfate (600 grams), and filtered. The solvent was removed under reduced pressure to give 887 grams of crude product as a purple oil. The crude product was dissolved in toluene (600 milliliters) and passed over a silica gel pad (1.4 kilograms), and eluted with a mixture of toluene and heptane (8 parts toluene to 2 parts heptane). The fractions containing product were combined and evaporated under reduced pressure. The product was mostly the desired diepoxide (756 grams, yellow oil which crystallizes in time), with some monoepoxide present. The purified material (756 grams) was dissolved at 70° C. in 2-propanol (2.3 liters) and then allowed to cool down to room temperature overnight. […]
(The Ames test detects mutagens through reverse mutation in bacteria.)
With `CC(C)(C)c1cc(Cc2cc(C(C)(C)C)c(OCC3CO3)c(C(C)(C)C)c2)cc(C(C)(C)C)c1OCC1CO1` (stereo not shown) [Diglycidyl ether of 4,4′-methylenebis(2,6-di-tert-butylphenol)], the genotoxicity result was “non-genotoxic”. Still for that read-out and setting: then `CCCC(c1cc(C(C)(C)C)c(OCC2CO2)cc1C)c1cc(C(C)(C)C)c(OCC2CO2)cc1C` (stereo not shown), with “non-genotoxic”.

Another data set concerns the target T1, human estrogen receptor (Homo sapiens, UniProt P03372).
T1 sequence (P03372 1-595): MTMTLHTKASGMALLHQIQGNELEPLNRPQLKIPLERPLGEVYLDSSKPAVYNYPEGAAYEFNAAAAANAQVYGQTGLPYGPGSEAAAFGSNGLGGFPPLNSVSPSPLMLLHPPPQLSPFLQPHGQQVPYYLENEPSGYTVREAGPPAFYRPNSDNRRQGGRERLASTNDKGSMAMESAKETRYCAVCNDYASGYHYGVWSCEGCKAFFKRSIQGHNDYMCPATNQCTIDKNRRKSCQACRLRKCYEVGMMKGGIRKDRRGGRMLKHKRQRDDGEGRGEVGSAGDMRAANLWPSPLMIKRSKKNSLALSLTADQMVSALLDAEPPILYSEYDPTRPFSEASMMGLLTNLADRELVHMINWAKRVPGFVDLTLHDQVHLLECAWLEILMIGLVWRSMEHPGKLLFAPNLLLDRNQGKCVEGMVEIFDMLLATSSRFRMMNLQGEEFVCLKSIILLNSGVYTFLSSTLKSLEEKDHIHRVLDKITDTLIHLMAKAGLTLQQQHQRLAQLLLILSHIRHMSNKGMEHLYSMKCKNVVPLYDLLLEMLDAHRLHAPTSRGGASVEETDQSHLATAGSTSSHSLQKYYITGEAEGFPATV
Put plainly: suitable in vitro assay whose results are directly correlated to the MCF-7 assay. Conditions: in vitro assay correlated to MCF-7 assay through common reference compounds.
For the compound `CC(C)(C)c1cc(O)c(C(C)(C)C)cc1O` [Structure 12], the estrogenic activity entry is “do not exhibit appreciable estrogenic activity”. The same measure, in the same setting: then `Cc1cc(Cc2cc(C)cc(C(C)(C)C)c2O)c(O)c(C(C)(C)C)c1` [Structure 9], with “do not exhibit appreciable estrogenic activity”. Same read-out and setting: then `CC(C)(C)c1cc(Cc2cc(C(C)(C)C)c(O)c(C(C)(C)C)c2)cc(C(C)(C)C)c1O` [Structure 8], with “do not exhibit appreciable estrogenic activity”. On the same count and under the same terms, then `Cc1cc(Cc2cc(C)c(O)c(C)c2)cc(C)c1O` [Structure 6], with “do not exhibit appreciable estrogenic activity”; and `CCCC(c1cc(C(C)(C)C)c(O)cc1C)c1cc(C(C)(C)C)c(O)cc1C` [Structure 7, 4,4′-butylidenebis(2-t-butyl-5-methylphenol)], with “do not exhibit appreciable estrogenic activity”.
